Measured values: PMC8312610, “F4, a collagen XIX-derived peptide, inhibits tumor angiogenesis through αvβ3 and α5β1 integrin interaction” (Cell Adhesion & Migration, 2021)
Entries after “also recorded” stand apart in the source; their conditions may differ. Positions of bridges follow the written chain, without caps; N, C: chain ends. No end group written: not given here.

How the values were obtained:
[1] = tested on: HUVEC (Human Umbilical Vein Endothelial Cells); test: HUVEC proliferation (crystal violet); type: cell-based; settings: 40 μM, 48 h, 5,000 HUVEC per well in ECGM, 560 nm, means ± SD (n = 16), N = 3
Procedure: Figure 1. […] 5,000 HUVEC were seeded in a 96 well plate and incubated with or without 40 μM NC1(XIX) or F4 for 48 hours. After washing, cells were fixed with glutaraldehyde and stained with crystal violet. Dye was eluted with 10% acetic acid and absorbance was read at 560 nm. The values are the means ± SD (n = 16). The experiment was repeated three times (N = 3) and the results presented in the figure correspond to the more representative one
(§1) Human Umbilical Vein Endothelial Cells (HUVEC) (Ref C-12253) were purchased from Promocell. They were grown in Endothelial Cell Growth Medium (ECGM) (Promocell, Ref C-22110: Basal medium supplemented with 0.02 mL/mL Fetal Calf Serum, 0.004 mL/mL Endothelial Cell Growth Supplement, 0.1 ng/mL Epidermal Growth Factor (recombinant human), 1 ng/mL Basic Fibroblast Growth Factor (recombinant human), 90 μg/mL Heparin, 1 μg/mL Hydrocortisone) at +37°C in a humid atmosphere containing 5% CO2. PromoCell Detach Kit was used for the detachment of HUVEC according to the manufacturer’s protocols (Promocell, ref C-41200).
For cell proliferation measurement, 5,000 HUVEC were seeded in 96-well plates and cultivated in ECGM with or without 40 μM NC1(XIX) or F4 at +37°C in a humid atmosphere containing 5% CO2. […] Dye was eluted with 10% (v/v) acetic acid and absorbance was read at 560 nm.

HUVEC = test: Capillary (pseudo-)tube formation on Matrigel; type: cell-based, human; settings: 40 µM
Procedure: Figure 2. NC1(XIX) and F4 inhibit endothelial cell in vitro pseudotube formation. 50,000 HUVEC were seeded in Matrigel coated well of a 48 well-plate and incubated with or without 40 μM NC1(XIX) or F4. Pseudotube formation was observed and photographed under an inverted microscope after 8 hours (a). The number of segments, of nodes and the total length of pseudotubes were quantified by the ImageJ software, using the Angiogenesis Analyzer tool (b). The values are the means ± SD (n = 8 replicates). *** p < 0.001). The experiment was repeated three times (N = 3)
as §1
The ability of HUVEC to form pseudo-tubes was investigated on Matrigel (Corning, ref 356237). Matrigel was loaded into 48-well plate and allowed to polymerize at +37°C for 2 h. 50,000 HUVEC suspended in Basal media supplemented with 0.004 mL/mL Endothelial Cell Growth Supplement, 90 μg/mL Heparin, 1 μg/mL Hydrocortisone with or without 40 μM NC1(XIX) or F4 were seeded into each well. Plates were incubated at +37°C in a humid atmosphere containing 5% CO2, 95% for 8 h. The formation of the capillary network was then imaged under an inverted light microscope. Quantitative evaluation of the capillary network was performed using the angiogenesis analyzer tool of ImageJ analysis software. The number of nodes, of segments and the total length of the capillary network were determined.

[2] = tested on: Sprague Dawley rat aortic rings; test: Ex vivo rat aortic ring assay (endothelial cell outgrowth); type: cell-based; settings: 40 μM, 14 days, Opti-MEM with 30 ng/mL VEGF, Matrigel, mean ± SD (n = 5), N = 2; p < 0.01 NC1(XIX), p < 0.001 F4
Procedure: Figure 3. NC1(XIX) and F4 inhibit endothelial cell ex vivo migration. Rat aortic rings were embedded in Matrigel in 24 well-plate and then incubated with or without 40 μM NC1(XIX) or F4 for 14 days. Micro-vessel outgrowth was observed under an inverted microscope after 14 days and photographed (a). Cell outgrowth from the tissue explant was measured using a home-made macro based on ImageJ analysis software. The results are presented as mean ± SD (n = 5 replicates) (b). The experiment was repeated twice (N = 2)
The ex vivo rat aortic ring assay was adapted from Baker et al.. Thoracic aorta was dissected from Sprague Dawley rat and stored in Opti-MEM (ThermoFisher, ref 31985062) supplemented with 1% penicillin/streptomycin in a Petri dish. Aorta was then cut into 0.5 mm rings that were incubated in Opti-MEM overnight at +37°C in a Petri dish. Matrigel (7 mg/mL) was loaded in 24-well plate and allowed to polymerize at +37°C for 30 min. The rings were carefully transferred from the Petri dish onto the Matrigel coated wells and were completely embedded by addition of Matrigel. The plate was incubated at +37°C for 30 min. Opti-MEM supplemented with 30 ng/mL VEGF with or without 40 μM NC1(XIX) or F4 was added. Plate was incubated at +37°C in a humid atmosphere containing 5% CO2 for 14 days. The supplemented culture medium was changed every 3 days. Rings were imaged under an inverted light microscope at 14 days. Quantitative evaluation of the angiogenic sprouting was determined by measuring the number of endothelial cell outgrowth from the primary tissue explant using a homemade macro based on ImageJ analysis software. The first step consisted in the semi-automatic selection of aortic ring shape at day 0 by manual threshold allowing the design of a top hat filter to obtain a relevant mask of this structure. The mask was then substracted from day 14 image to keep only outgrowing cells. The second step consisted in a manual threshold and the use of ‘Analyze Particules’ tool involving size criteria. The total cell number of cell outgrowing from the ring was determined.

melanoma cell = settings: earlier work of the authors; ref [22],[23]; cited from earlier work
From the text: (§2) The aim of the present work was to study the anti-angiogenic properties of F4 peptide. […] By affinity chromatography, we identified αvβ3 and α5β1 integrins as potential receptors for F4 peptide on endothelial cell surface. Using solid phase assays, ... || Type XIX collagen, that belongs to the FACIT family (Fibril-Associated Collagens with Interrupted Triple helices), is a minor collagen associated to the basement membrane zone.

mouse melanoma model = settings: mouse melanoma model; ref [22],[23]; cited from earlier work
From the text: as §2

α5β1 integrin [3] = tested on: α5β1 integrin; parameters: method as in PMID 26975851; settings: NC1(XIX) covalently coupled to agarose beads, cortical protein extract; ref [27]; cited from earlier work
[4] = tested on: inhibitory nerve terminal assembly; parameters: method as in PMID 26975851; settings: in vitro; ref [27]; cited from earlier work
αvβ3 integrin = test: Solid phase assay, direct binding to αvβ3; parameters: species or system human; settings: coated integrin 26 × 10^−7 to 0.1 × 10^−7 mol/L; biotinylated-F4 26 × 10^−5 mol/L, or 20.8 × 10^−4 to 0.16 × 10^−4 mol/L; 90 min, room temperature, streptavidin-peroxidase/TMB, 450 nm; N = 2
From the text: (§3) Figure 5. F4 directly binds to αvβ3 and α5β1 integrins. Direct interaction between αvβ3 or α5β1 integrin and F4 was studied using solid phase assays as described in the material and method section. The F4 peptide was biotinylated to allow its detection using the streptavidin-peroxidase complex. Different conditions were used. (a-b) The amounts of coated αvβ3 (a) or α5β1 integrin (b) were increased while biotinylated F4 peptide was kept constant. (c-d) The concentration of biotinylated F4 peptide was increased while coated amounts of αvβ3 (c) or α5β1 (d) integrins were kept constant. (e-f) Competitive assays were performed using increasing concentrations of F4 peptide while biotinylated-F4 peptide and αvβ3 (e) or α5β1 (f) integrins were kept constant. […]
(§4) Wells of a 96-well plate were coated with α5β1 (ref. 3230-A5-050, R&D systems) and/or αvβ3 integrin (ref. 3050-AV-050, R&D systems) at different concentrations ranging from 26 × 10^−7 mol/L to 0.1 × 10^−7 mol/L (100 μL per well in PBS). […] The intensity of the yellow coloration was measured at 450 nm with an LB940 spectrophotometer (Berthold Technologies).
(§5) The optimum integrin amount for the coating was determined using the above protocol and the optimum ligand concentration was sought using different dilutions of the biotinylated-F4 peptide ranging from 20.8 × 10^−4 to 0.16 × 10^−4 mol/L.

α5β1 integrin [5] = test: Solid phase assay, direct binding to α5β1; parameters: species or system human; settings: coated integrin 26 × 10^−7 to 0.1 × 10^−7 mol/L; biotinylated-F4 26 × 10^−5 mol/L, or 20.8 × 10^−4 to 0.16 × 10^−4 mol/L; 90 min, room temperature, streptavidin-peroxidase/TMB, 450 nm; N = 2
From the text: as §3, §4, §5

[6] = 8 h, 50,000 HUVEC on Matrigel, ImageJ Angiogenesis Analyzer, p < 0.001 for NC1(XIX) and F4, n = 8, N = 3

Row | Substance | effect on HUVEC proliferation [1] | decrease of the number of nodes vs control (HUVEC; [6]) [%] | decrease of the number of segments vs control (HUVEC; [6]) [%] | decrease of the total length of capillary tubes vs control (HUVEC; [6]) [%] | inhibition of pseudo-tube formation (HUVEC; 8 h, HUVEC on Matrigel, compared to control) | change of cell outgrowth from aortic ring vs control [2] [%] | melanoma cell migration and invasion (melanoma cell) | in vivo tumor growth and angiogenesis (mouse melanoma model) | purification of α5β1 integrin on immobilised peptide (α5β1 integrin [3]) | inhibitory nerve terminal assembly [4] | binding to αvβ3, concentration dependence (αvβ3 integrin) | binding to α5β1, concentration dependence (α5β1 integrin [5])
1 | NPEDCLYPVSHAHQRTGGN [NC1(XIX), NC1(XIX) domain at the C-terminus of the α1(XIX) collagen chain] | not significantly modified; also recorded: does not affect endothelial cell proliferation | 57 | 33 | 31 | strongly inhibited pseudo-tube formation | −57 | inhibits melanoma cell migration and invasion | strongly inhibits in vivo tumor growth as well as angiogenesis | able to purify α5β1 integrin from cortical protein extract | involved in triggering inhibitory nerve terminal assembly in vitro |  | 
2 | biotinylated-F4: The F4 peptide was biotinylated to allow its detection using the streptavidin-peroxidase complex (CNPEDCLYPVSHAHQR; disulfide 1-6 (inferred); also: biotinylated (position not given here)) |  |  |  |  |  |  |  |  |  |  | dependent both on the receptor (Figure 5(a,b)) and on ligand (Figure 5(c,d)) concentrations | dependent both on the receptor (Figure 5(a,b)) and on ligand (Figure 5(c,d)) concentrations
